Measurements published in patent US20100015709A1, “Regulating Stem Cell Differentiation By Controlling 2D and 3D Matrix Elasticity” (Trustees of the University of Pennsylvania, priority 2006, published 2010).

Key:
[1] = system: MSCs, C2C12-myoblasts, hFOB-osteoblasts; assay: Creep-test micropipette aspiration, membrane cortical stiffness; type: cell-based
Description: Creep-test Micropipette Aspiration: Micropipettes were forged using a deFonbrune-type microforge (Vibratome, St. Louis, Mo.) to a radius of 2-3 μm with an approximately 25° pipette curvature so when mounted in micromanipulators (Nirishige; Japan) at an angle similar to the micropipette's curvature. The end of the pipette was flush with the cell edge. A step pressure drop was imposed on the cell membrane, causing the membrane projection, L, to aspirate into the pipette as a function of time (t), pressure drop (ΔP) and pipette radius (R), as governed by the Sato and coworkers' viscoelastic half-space model (Sato et al., J. Biomech. Eng. 112:263-268 (1990), herein incorporated by reference:
Images of the projection length were taken every 2 seconds in brightfield on a TE300 inverted Nikon microscope and cascade CCD camera (Photometrics), which allowed accurate fitting of the parameters κ, μ′, and τ to the data to determine the elastic and viscous moduli of each membrane.

vertebrate cells = conditions: cited from earlier work
[2] = system: MSCs, C2C12-myoblasts, hFOB-osteoblasts; assay: Traction force measurement, cell pre-stress; type: cell-based; conditions: any matrix
From the text: Traction Force Measurements: Adhesive stresses, imposed on the matrix surface by an adherent cell, generate a displacement field from embedded beads within a soft substratum, which can be mapped on the cell if the gel can be approximated as a semi-infinite solid. Briefly, the well characterized traction force method (Butler et al., 2002, supra; Dembo et al., 1999, supra; Wang et al., 2002b, supra) uses bead displacements between images with, and without, the adherent cell to assemble a displacement field and determine Green's strain function given known material properties of the substratum (elastic modulus, Poisson's ratio, etc). The traction field was used to obtain the cell pre-stress, i.e., the net tensile force over the cell-matrix interface carried by the actin cytoskeleton across a cross-sectional area of the cell that balances cell traction forces (Wang et al., 2002b, supra).

[3] = target: myosin light chain kinase (MLCK) (Homo sapiens, UniProt Q15746); conditions: at concentrations inhibiting NMM II ATPase; cited from earlier work
MSCs [4] = assay: MSC morphology (branching, spindle factor, spreading) on collagen-coated gels; type: cell-based, human
Description: Cell Culture: Human Mesenchymal Stem Cells (MSCs; Osiris Therapeutics; Baltimore, Md. or Lonza), human osteoblasts (hFOBs; ATCC, Manassas, Va.), primary human skin fibroblasts (FC7) (Engler et al., 2004c, supra), and murine myoblasts (C2C12s; ATCC) were cultured in normal growth media, such as low glucose DMEM (Invitrogen) supplemented with 10% fetal bovine serum (FBS, Sigma) and 1% penicillin/streptomycin (Invitrogen) in regular tissue culture treated flasks (Corning). See also, U.S. Ser. No. 11/351,420. Media was exchanged every other day and cells were used up to passage number nine.
(§1) To inhibit proliferation, cells were exposed to mitomycin C (10 μg/ml) for 2 hr and washed three times with media prior to plating. Blebbistatin (50 μM; EMD Biosciences, Inc., San Diego, Calif.), a NMM II inhibitor, was applied with every media change and was stable in culture media for up to 48 hours, as determined by thin layer chromatography.
(§2) 1) Morphological Changes and Immunofluorescence: Changes in cell shape (<4 days), especially the development of neurite-like branches (Engler et al., 2004c, supra) or spindle-like morphologies (Flanagan et al., 2002, supra), were quantified either by the number of membrane branches per mm of cell or by a “spindle factor,” referring to the major cell axis/minor cell axis, respectively. […]

MSCs [5] = assay: 3D hydrogel sandwich overlay, cell morphology; type: cell-based, human; conditions: treated after the overlay procedure
Description: Hydrogel Sandwich Preparation: The whole procedure is performed in a biosafety cabinet to maintain sterility. All equipment used was either sterile or sterilized by UV treatment for one hour. To produce the sandwich-like structures, cells were cultured for a given time on regular 2D substrates supported by 25 mm aminosilanized cover slips, rinsed with PBS and dried of the bulk liquid. 35 μl of the hydrogel mixture was added immediately and the sample was covered with a hydrophobic chlorosilanized glass slip to create a homogenous overlay gel. After one hour the top cover slip was carefully removed and the sandwich rinsed with PBS to remove any unbound residues. Subsequently, the gels were incubated for two hours at 37° C./5.0% CO2 in media supplemented with 1.5% or 2% cysteine (w/v) or iodacetamide solution using a shaker to cap or inactivate any remaining free thiols. […]
Immuno-staining, fluorescence microscopy, and image analysis: Cells were fixed for five minutes in a 10% solution of formaldehyde (Sigma) in PBS (Gibco) and subsequently permeabilized with a 0.5% solution of TritonX 100 (Sigma) in PBS followed by rinsing in PBS. […]
Cell area A and spindle factor r (ratio of major to minor axis of a fitted ellipse) were determined using the built-in functions of ImageJ (available at http:rsb.info.nih.gov/ij; developed by Wayne Rasband, National Institutes of Health, Bethesda, Md.). […]

[6] = Stability in culture media by thin layer chromatography; type: physicochemical; conditions: 50 μM
Description: as §1

MSCs [7] = assay: Lineage marker expression (immunofluorescence, western blot, oligonucleotide array); type: cell-based, human; conditions: blebbistatin 50 μM
Description: as §2
Cells were fixed with formaldehyde, incubated in a 5% albumin blocking solution for 1 hour at 37° C., permeabilized with 0.5% Triton-X-100 and incubated overnight at 4° C. in 1:100 dilution of antibodies in PBS. […] Cell morphology and fluorescently labeled cells were examined on a TE300 inverted epi-fluorescent Nikon or Olympus (TIRF) microscope, imaged on a cascade CCD camera (PhotoMetrics, Huntington, Beach, Calif.), and quantified with Scion Image (Scion Corp., Frederick, Md.).
2) Western blotting: Cells (with or without blebbistatin treatment, 50 μM) were also plated on 45×50 mm coverslips to obtain enough cells for western blotting. […] Quantification of western blots was done by Scion Image software. […]

hMSCs = assay: Nucleus morphology of hMSCs on gels; type: cell-based, human; conditions: 11 kPa substrates
Description: Immuno-staining, fluorescence microscopy, and image analysis: Cells were fixed for five minutes in a 10% solution of formaldehyde (Sigma) in PBS (Gibco) and subsequently permeabilized with a 0.5% solution of TritonX 100 (Sigma) in PBS followed by rinsing in PBS. Samples were then incubated in a 1:250 solution of the appropriate primary antibody in a 3% solution of BSA (Sigma) in PBS for at least 2 hours at room temperature on a rocker. To remove any unspecifically bound antibodies, the gels were incubated with a 0.5% solution of TritonX 100 for five minutes and rinsed with PBS twice, followed by incubation with secondary antibodies (1:250 in 3% BSA in PBS) and rhodamine-phalloidin (Sigma) for at least one hour on a rocker at room temperature. […]
Cell area A and spindle factor r (ratio of major to minor axis of a fitted ellipse) were determined using the built-in functions of ImageJ (available at http:rsb.info.nih.gov/ij; developed by Wayne Rasband, National Institutes of Health, Bethesda, Md.).
Since matrix elasticity not only influences cell and cytoskeleton morphology, but also the differentiation of hMSCs, and therefore global changes in patterns of gene expression, the morphology of the nucleus was analyzed in terms of projected area A and spindle factor of the projected area r to gain insight into the transduction of mechanical signals from the matrix to the nucleus. […]

NMM II ATPase = conditions: cited from earlier work
neuronal motility = conditions: at mM concentrations; cited from earlier work

Sequence of myosin light chain kinase (MLCK) (Q15746 whole entry): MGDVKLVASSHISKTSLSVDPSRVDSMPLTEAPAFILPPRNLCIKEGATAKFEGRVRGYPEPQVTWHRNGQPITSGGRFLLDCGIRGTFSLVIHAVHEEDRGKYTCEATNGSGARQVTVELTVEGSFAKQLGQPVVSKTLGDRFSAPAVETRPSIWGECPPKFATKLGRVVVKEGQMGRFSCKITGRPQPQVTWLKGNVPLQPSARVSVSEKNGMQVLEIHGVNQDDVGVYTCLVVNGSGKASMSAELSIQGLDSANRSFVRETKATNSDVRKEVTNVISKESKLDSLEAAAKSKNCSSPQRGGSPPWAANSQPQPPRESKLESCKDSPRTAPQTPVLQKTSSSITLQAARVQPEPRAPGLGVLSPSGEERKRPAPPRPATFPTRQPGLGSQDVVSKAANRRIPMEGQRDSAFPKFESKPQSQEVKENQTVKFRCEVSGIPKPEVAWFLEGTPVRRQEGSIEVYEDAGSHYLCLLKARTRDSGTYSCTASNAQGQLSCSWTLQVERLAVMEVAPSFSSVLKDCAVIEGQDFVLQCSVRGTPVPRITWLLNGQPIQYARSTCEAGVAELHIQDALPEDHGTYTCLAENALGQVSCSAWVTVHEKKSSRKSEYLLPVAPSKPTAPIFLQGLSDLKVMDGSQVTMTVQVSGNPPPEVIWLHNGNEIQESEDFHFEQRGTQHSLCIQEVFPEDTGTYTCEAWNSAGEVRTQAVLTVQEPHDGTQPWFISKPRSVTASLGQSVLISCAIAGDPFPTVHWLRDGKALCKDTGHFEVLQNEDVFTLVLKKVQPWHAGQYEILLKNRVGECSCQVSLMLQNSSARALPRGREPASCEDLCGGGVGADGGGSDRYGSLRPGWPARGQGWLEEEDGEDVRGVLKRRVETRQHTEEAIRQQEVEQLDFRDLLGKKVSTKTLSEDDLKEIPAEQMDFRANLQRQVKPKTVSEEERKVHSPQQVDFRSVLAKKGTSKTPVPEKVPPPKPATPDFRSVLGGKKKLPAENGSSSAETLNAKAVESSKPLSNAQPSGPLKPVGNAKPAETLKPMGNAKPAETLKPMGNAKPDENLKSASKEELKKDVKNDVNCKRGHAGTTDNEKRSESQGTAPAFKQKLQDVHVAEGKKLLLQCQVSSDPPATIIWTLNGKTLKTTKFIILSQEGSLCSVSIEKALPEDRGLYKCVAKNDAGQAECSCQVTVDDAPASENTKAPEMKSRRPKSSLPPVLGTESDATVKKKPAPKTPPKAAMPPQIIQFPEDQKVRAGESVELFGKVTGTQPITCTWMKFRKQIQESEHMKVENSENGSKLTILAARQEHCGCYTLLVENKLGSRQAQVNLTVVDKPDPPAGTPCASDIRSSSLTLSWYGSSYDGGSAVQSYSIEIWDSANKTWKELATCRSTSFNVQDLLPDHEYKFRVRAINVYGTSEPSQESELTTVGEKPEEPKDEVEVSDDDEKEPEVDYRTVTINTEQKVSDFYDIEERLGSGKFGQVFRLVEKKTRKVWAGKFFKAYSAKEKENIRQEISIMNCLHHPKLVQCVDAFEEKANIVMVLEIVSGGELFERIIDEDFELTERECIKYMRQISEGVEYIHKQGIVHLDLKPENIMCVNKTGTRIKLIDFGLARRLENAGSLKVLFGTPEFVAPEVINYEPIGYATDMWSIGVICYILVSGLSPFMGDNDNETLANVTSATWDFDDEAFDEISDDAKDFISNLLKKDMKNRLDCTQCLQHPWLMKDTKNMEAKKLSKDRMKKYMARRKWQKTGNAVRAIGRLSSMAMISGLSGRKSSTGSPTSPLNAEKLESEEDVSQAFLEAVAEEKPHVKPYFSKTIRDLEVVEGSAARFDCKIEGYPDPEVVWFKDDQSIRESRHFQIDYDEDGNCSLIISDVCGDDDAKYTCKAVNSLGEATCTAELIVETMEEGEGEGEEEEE

SMILES: Cc1ccc2c(c1)C(=O)C1(O)CCN(c3ccccc3)C1=N2 (centres unmarked) [blebbistatin]
- development of cortical stiffness κ ([1]; any matrix): prevented any of the cells from developing
- softening of cell membranes (membrane cortical stiffness) ([1]; micropipette aspiration, all gels): more than 3 fold
- cell blebbing, directed cell migration and cytokinesis (vertebrate cells): blocking cell blebbing and rapidly disrupting directed cell migration and cytokinesis
- development of pre-stress σ [2]: prevented any of the cells from developing
- effect on myosin light chain kinase [3]: without affecting
- branching, elongation and spreading of MSCs (MSCs [4]; blebbistatin 50 μM, cells on any substrate): block branching, elongation, and any significant spreading of MSCs
- actin stress fibers of cells in sandwich overlay (MSCs [5]): lacked any organized actin stress fibers
- spindle factor r of cells in sandwich overlay (MSCs [5]): not significantly different from that of the 2D control
- stability in culture media [6]: up to 48 hours
- lineage marker expression by MSCs (MSCs [7]): blocked all marker expression
- matrix-dependent change of nucleus projected area and aspect ratio (hMSCs): inhibited
- drug concentration inhibiting NMM II ATPase activity (NMM II ATPase): < 10 µM

SMILES: CC(=O)/C(C)=N/O [BDM]
- neuronal motility (neuronal motility): block neuronal motility

SMILES: CO[C@@]12[C@H](COC(N)=O)C3=C(C(=O)C(C)=C(N)C3=O)N1C[C@@H]1N[C@@H]12 [mitomycin-C, mitomycin C]
- average cell shape after inhibition of proliferation (MSCs [4]; mitomycin C 10 μg/ml for 2 hr before plating): little impact on average cell shape
